This experiment has as its system MCH receptors. The experiment is described as follows: MCH receptor activity class (method not given).
The mark [1] stands for this setting: class by percent of control at 10^-7 M or IC50.
The mark [2] stands for this setting: class by percent of control at 10^−7 M or IC50.
[3] abbreviates: MCH receptor activity class 1-3 (percent of control at 10^-7 M or IC50).
Setting [4] is: MCH receptor, class by percent of control at 10^-7 M or IC50.
[5] abbreviates: class 1-3 by percent of control at 10^-7 M or IC50.
[6] abbreviates: activity class per percent of control at 10^-7 M or IC50.

On to `COc1ccc(CNC[C@H]2CC[C@@H](Nc3cc(N(C)C)c4ccccc4n3)CC2)c(OC)c1C` [compound 1167], for which the class under setting [1] was 3 (Class 3 The value of percent of control at 10^−7 M was more than 60% or the value of IC50 was more than 200 nM.). As for `Cc1cnc(N[C@H]2CC[C@@H](NC(=O)c3ccc(F)c(C(F)(F)F)c3)CC2)nc1N(C)C` [compound 2919], the class under setting [2] is recorded as 1 (Class 1: The value of percent of control at 10^−7 M was less than 40% or the value of IC50 was less than 50 nM.).

For `CN(C)c1ccnc(N[C@H]2CC[C@@H](NC(=O)C3=Cc4cc(Cl)ccc4OC3)CC2)n1` [compound 361, 6-chloro-N-(cis-4-{[4-(dimethylamino)pyrimidin-2-yl]amino}cyclohexyl)-2H-chromene-3-carboxamide], the class under setting [1] is listed as 2 (Class 2: The value of percent of control at 10^−7 M was from 40% to 60% or the value of IC′50 was from 50 nM to 200 nM.).

Take `CN(C)c1cc(N[C@H]2CC[C@@H](NC(=O)Nc3ccc4c(c3)OCCO4)CC2)nc2ccccc12` [compound 2161]: the class under setting [1] is given as 3 (Class 3 The value of percent of control at 10^−7 M was more than 60% or the value of IC50 was more than 200 nM.). Consider `Cc1cc(Br)cc(C)c1NC(=O)NC[C@H]1CC[C@@H](Nc2nccc(N(C)C)n2)CC1` [compound 2436, N-(4-bromo-2,6-dimethylphenyl)-N′-[(cis-4-{[4-(dimethylamino)pyrimidin-2-yl]amino}cyclohexyl)methyl]urea], for which the class under setting [3] was 1 (Class 1: The value of percent of control at 10^−7 M was less than 40% or the value of IC50 was less than 50 nM.).

Regarding `CN(C)c1cc(N[C@H]2CC[C@@H](CNC(=O)Nc3ccccc3C(C)(C)C)CC2)nc2ccccc12` [compound 2384], the class under setting [3] is recorded as 1 (Class 1: The value of percent of control at 10^−7 M was less than 40% or the value of IC50 was less than 50 nM.). Regarding `Cc1cnc(N[C@H]2CC[C@@H](NC(=O)C[S+]([O-])c3ccc(F)c(F)c3)CC2)nc1N(C)C` (relative stereo) [compound 2883, 2-[(3,4-difluorophenyl)sulfinyl]-N-(cis-4-{[4-(dimethylamino)-5-methylpyrimidin-2-yl]amino}cyclohexyl)acetamide], under setting [2], the class is reported as 2 (Class 2: The value of percent of control at 10^−7 M was from 40% to 60% or the value of IC′50 was from 50 nM to 200 nM.). With `Cc1onc(-c2c(F)cccc2Cl)c1C(=O)N[C@H]1CC[C@@H](Nc2cc(N(C)C)c3ccccc3n2)CC1` [compound 100, 3-(2-chloro-6-fluorophenyl)-N-(cis-4-{[4-(dimethylamino)quinolin-2-yl]amino}cyclohexyl)-5-methylisoxazole-4-carboxamide], under setting [4], the class was 1 (Class 1: The value of percent of control at 10^−7 M was less than 40% or the value of IC50 was less than 50 nM.).

For the compound `CCC(Oc1ccccc1)C(=O)N[C@H]1CC[C@@H](Nc2nc3c(c(N(C)C)n2)CCCC3)CC1` (relative stereo) [compound 484], the class under setting [5] is 1 (Class 1: The value of percent of control at 10^−7 M was less than 40% or the value of IC50 was less than 50 nM.). In the case of `CC(C)S(=O)(=O)c1csc(C(=O)N[C@H]2CC[C@@H](Nc3nccc(N(C)C)n3)CC2)c1Cl` [compound 319], the class under setting [1] was 3 (Class 3 The value of percent of control at 10^−7 M was more than 60% or the value of IC50 was more than 200 nM.). Regarding `Cc1cnc(N[C@H]2CC[C@@H](NC(=O)c3cccnc3Oc3ccccc3F)CC2)nc1N(C)C` [compound 2891, N-(cis-4-{[4-(dimethylamino)-5-methylpyrimidin-2-yl]amino}cyclohexyl)-2-(2-fluorophenoxy)nicotinamide], under setting [2], the class is 1 (Class 1: The value of percent of control at 10^−7 M was less than 40% or the value of IC50 was less than 50 nM.).

With `CCOc1ccccc1CN[C@H]1CC[C@@H](Nc2nc3c(c(N(C)C)n2)CCCC3)CC1` [compound 1327], under setting [1], the class is recorded as 3 (Class 3 The value of percent of control at 10^−7 M was more than 60% or the value of IC50 was more than 200 nM.).

As to `COc1ccc(OC)c(CC(=O)N[C@H]2CC[C@@H](Nc3cc(N(C)C)c4ccccc4n3)CC2)c1` [compound 35], under setting [4], the class is given as 3 (Class 3 The value of percent of control at 10^−7 M was more than 60% or the value of IC50 was more than 200 nM.).

As to `Cc1ccc(C(=O)N[C@H]2CC[C@@H](Nc3nc(C)c(C)c(N(C)C)n3)CC2)cc1` [compound 2845, N-(cis-4-{[4-(dimethylamino)-5,6-dimethylpyrimidin-2-yl]amino}cyclohexyl)-4-methylbenzamide], the class under setting [2] is 1 (Class 1: The value of percent of control at 10^−7 M was less than 40% or the value of IC50 was less than 50 nM.).

On to `Cc1ccc(Oc2ncccc2C(=O)N[C@H]2CC[C@@H](Nc3nc4c(c(N(C)C)n3)CCCC4)CC2)cc1` [compound 573], for which the class under setting [5] is given as 1 (Class 1: The value of percent of control at 10^−7 M was less than 40% or the value of IC50 was less than 50 nM.).

For the compound `COc1ccc(C)cc1NC(=O)NC[C@H]1CC[C@@H](Nc2nc3c(c(N(C)C)n2)CCCC3)CC1` [compound 2492], under setting [1], the class is 3 (Class 3 The value of percent of control at 10^−7 M was more than 60% or the value of IC50 was more than 200 nM.). `CN(C)c1cc(N[C@H]2CC[C@@H](NC(=O)Cc3cccc4ccccc34)CC2)nc2ccccc12` [compound 89]: the class under setting [4] was 3 (Class 3 The value of percent of control at 10^−7 M was more than 60% or the value of IC50 was more than 200 nM.).

On to `CN(C)c1nc(N[C@H]2CC[C@@H](NC(=O)c3cc(Br)c(Br)o3)CC2)nc2c1CCCC2` [compound 982], for which, under setting [6], the class is 1 (Class 1: The value of percent of control at 10^−7 M was less than 40% or the value of IC50 was less than 50 nM.). On to `CN(C)c1nc(N[C@H]2CC[C@@H](CNC(=O)NC(c3ccccc3)c3ccccc3)CC2)nc2c1CCCC2` [compound 2481], for which the class under setting [3] is recorded as 3 (Class 3 The value of percent of control at 10^−7 M was more than 60% or the value of IC50 was more than 200 nM.).

On to `CN(C)c1cc(N[C@H]2CC[C@@H](CNC(=O)Cc3cccs3)CC2)nc2ccccc12` [compound 180], for which, under setting [4], the class is listed as 3 (Class 3 The value of percent of control at 10^−7 M was more than 60% or the value of IC50 was more than 200 nM.). `COc1ccc(OC)c(CC(=O)N[C@H]2CC[C@@H](Nc3nc4c(c(N(C)C)n3)CCCC4)CC2)c1` [compound 471]: the class under setting [5] was 3 (Class 3 The value of percent of control at 10^−7 M was more than 60% or the value of IC50 was more than 200 nM.). `CN(C)c1nc(N[C@H]2CC[C@@H](NC(=O)Cc3ccccc3I)CC2)nc2c1CCCC2` [compound 957]: the class under setting [1] is listed as 2 (Class 2: The value of percent of control at 10^−7 M was from 40% to 60% or the value of IC′50 was from 50 nM to 200 nM.).

As to `CN(C)c1cc(N[C@H]2CC[C@@H](NC(=O)Nc3c(Cl)cccc3C(F)(F)F)CC2)nc2ccccc12` [compound 2103], the class under setting [1] is given as 3 (Class 3 The value of percent of control at 10^−7 M was more than 60% or the value of IC50 was more than 200 nM.).

As for `COc1ccc2c(c1)C(CC(=O)N[C@H]1CC[C@@H](Nc3nc4c(c(N(C)C)n3)CCCC4)CC1)CC2=O` (relative stereo) [compound 988], the class under setting [6] is given as 3 (Class 3 The value of percent of control at 10^−7 M was more than 60% or the value of IC50 was more than 200 nM.).

The values above are taken from patent US20050197350A1, “Novel quinoline, tetrahydroquinazoline, and pyrimidine derivatives and methods of treatment related to the use thereof” (TAISHO PHARMACEUTICAL CO., LTD., priority 2003, published 2005).
